≈ marks a conversion by molar mass, not a printed value. Like-named read-outs stand apart in the source and are kept apart here.
How the values were obtained:
bone marrow stem cells = experiment: bone marrow stem cell proliferation (XTT); assay type: cell-based, C57/BL6 mice; conditions: for Max amplitude: 7 days, XTT 492 nm; for Min amplitude: blank ± 3× standard deviation; for Max concentration: concentration at maximum amplitude; for EC50 conc: concentration corresponding to 50% of maximum amplitude; for Min concentration: lowest concentration inducing a significant proliferation
Source text: 6-week old male C57/BL6 mice are killed by CO2 inhalation. The hip, femur, tibia and hind leg bones are removed. The marrow is extracted from the bone lumen by injecting Dulbecco's Modified Eagle Medium (DH medium) from the end portions which had been excised. The stem cells are washed and suspended again in DH medium supplemented with 20% foetal calf serum (FCS) The cell concentration is adjusted to 500000 cells/ml.
Products previously dissolved in DH medium supplemented with 20% FCS, amino acids and antibiotics are serially diluted directly into a microtiter plate. The products are tested in triplicate and each microtiter plate includes a negative control containing plain medium. The final volume in each well is 100 μl.
100 μl of the cell suspension are added to diluted solutions of products and the cells are incubated for 7 days in an incubator at 37° C., under 8% CO2 and a moisture saturated atmosphere. Cell proliferation is determined by measuring the […] of a chromogenic substrate XTT (2,3-bis[2-methoxy-4-nitro-5-sulphophenyl]-2H-tetrazolium-5-carboxanilide) in mitochondria of viable cells.
At the end of the incubation period, 50 μl of the XTT substrate solution (1 mg/ml XTT+0.008 mg/ml phenazine methosulfate) are added to each well. After an 8 hour incubation period at 37° C. under 8% CO2 in a moisture saturated incubator, the microtiter plates are read with a spectrophotometer at 492 nm against a reference sample at 690 nm.
Results are expressed as mean value±standard deviation and plotted as a dose versus response curve. Values for a negative control composed of DH medium (mean±standard deviation) are also graphically shown.
From this dose versus response curve, 3 curve variables are computed:
Max: maximum curve amplitude and corresponding concentration
EC50: concentration corresponding to 50% of maximum amplitude
Min: lowest concentration inducing a significant proliferation corresponding to the blank±3× standard deviation value
Concentration values corresponding to EC50 and Min are determined from line segments joining different points on the curve.
If the curve has no plateau phase but an ascending configuration for the highest concentration being tested, a “>” sign is shown before Max and EC50 values.

murine macrophage cells = experiment: nitric oxide production by murine macrophage cells (Griess); assay type: cell-based, C57/BL6 mice; conditions: for Max concentration: concentration at maximum amplitude; for EC50 conc: concentration corresponding to 50% of maximum amplitude; for Min concentration: lowest concentration inducing a significant response
Method in brief: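 Bone-marrow macrophages from male C57/BL6 mice, differentiated 8 days with L929 supernatant, exposed to serially diluted compound for 22 h at 37 °C. Nitrite in supernatant measured by Griess reaction (562 nm vs 690 nm) against a standard curve. EC50 is concentration giving 50% of maximum amplitude, by line-segment interpolation.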

[1] = system: human peripheral blood mononuclear cells; experiment: α TNF production by human peripheral blood mononuclear cells; assay type: cell-based; conditions: 18 hours
Method in brief: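 Ficoll-isolated PBMC from 6 healthy donors (2×10^6 viable cells/ml, RPMI-1640, 10% FCS) exposed in triplicate for 18 h at 37 °C, 5% CO2 to compounds diluted 100-, 10- or 1-fold. Secreted TNF-α measured by chemiluminescent ELISA on 4-fold diluted supernatants against a 0.7–7000 pg/ml standard curve; values in pg/ml.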

[2] = system: Limulus Amoebocyte Lysate

| SMILES | Max amplitude (bone marrow stem cells) | Min amplitude (bone marrow stem cells) | Max concentration (bone marrow stem cells) | EC50 conc (bone marrow stem cells) | Min concentration (bone marrow stem cells) | Max concentration (murine macrophage cells) | EC50 conc (murine macrophage cells) | Min concentration (murine macrophage cells) | α TNF produced ([1]; product 1 μg/ml) | α TNF produced ([1]; product 10 μg/ml) | α TNF produced ([1]; product 100 μg/ml) | LAL ng of LPS equivalent per mg of product ([2]; 1 EU = 0.08 ng E. coli 055:B5 LPS) | LAL EU/mg of product ([2]; acyl-dipeptide-like compounds, diluted 0.1 mg/ml solution) | LAL EU/mg of product [2] | LAL ng of LPS equivalent per mg of product [2] |
| --- | --- | --- | --- | --- | --- | --- | --- | --- | --- | --- | --- | --- | --- | --- | --- |
| CCCCCCCCCCCC(=O)O[C@H](CCCCCCCCCCC)CC(=O)N[C@H](CC(=O)O)C(=O)NCCC[C@H](COC(=O)CCCCCNC(=O)CCC(=O)OC[C@@H]1C=C[C@H](n2cc(C)c(=O)[nH]c2=O)O1)NC(=O)C[C@H](O)CCCCCCCCCCC [OM-197-MC-AC-Succ-d4T] | 1.40 O.D | 0.80 O.D | 50 µg/mL | 25.4 µg/mL (≈ 19.7 µM) | 2.81 µg/mL | 12.5 µg/mL | 1.15 µg/mL (≈ 0.893 µM) | 0.56 µg/mL | 0 pg/mL | 40 pg/mL | 52 pg/mL | 0.08 ng of LPS equivalent per mg of product | 1.05 EU/mg of product |  |  |
| CCCCCCCCCCCC(=O)O[C@H](CCCCCCCCCCC)CC(=O)N[C@H](CC(=O)O)C(=O)NCCC[C@H](COC(=O)CCCCC(O)CO)NC(=O)C[C@H](O)CCCCCCCCCCC (stereo partly drawn) [OM-197-MC-FV5, N—[(R)-3-dodecanoyloxytetradecanoylamino]-D-aspartic acid, α-N-{(4R)-5-hydroxy-4-[(R)-3-hydroxytetra-decanoylamino]-pentyl}amide 5-O-(6,7-dihydroxyheptanoate)] | 1.75 O.D | 0.80 O.D | 50 µg/mL | 32.0 µg/mL (≈ 31.6 µM) | 8.20 µg/mL | 16 µg/mL | 2.56 µg/mL (≈ 2.53 µM) | 0.67 µg/mL | 0 pg/mL | 104 pg/mL | 116 pg/mL |  |  | 49.3 EU/mg of product | 3.9 ng of LPS equivalent per mg of product |
| CCCCCCCCCCCC(=O)O[C@H](CCCCCCCCCCC)CC(=O)N[C@H](CC(=O)N[C@@H](CC(=O)O)C(=O)O)C(=O)NCCC[C@H](COC(=O)CCCCCN)NC(=O)C[C@H](O)CCCCCCCCCCC [OM-197-Asp-AC, N—[(R)-3-dodecanoyloxytetradecanoyl]-D-aspartic acid, α-N-{(4R)-5-(6-aminohexanoyloxy)-4-[(R)-3-hydroxytetradecanoyl-amino]-pentyl}amide β-N-[(1S)-1,2-dicarboxyethyl]Amide] | 1.33 O.D | 0.80 O.D | 50 µg/mL | 2.8 µg/mL (≈ 2.55 µM) | 1.27 µg/mL | > 100 µg/mL | > 7.04 µg/mL | 2.00 µg/mL | 20 pg/mL | 172 pg/mL | 132 pg/mL |  |  | 2307 EU/mg of product | 184.6 ng of LPS equivalent per mg of product |
| CCCCCCCCCCCC(=O)O[C@H](CCCCCCCCCCC)CC(=O)N[C@H](CC(=O)O)C(=O)NCCC[C@H](COC(=O)CCC(=O)O)NC(=O)C[C@H](O)CCCCCCCCCCC [OM-197-MC-Succ] | 2.16 O.D | 0.80 O.D | 50 µg/mL | 24.7 µg/mL (≈ 25.5 µM) | 2.95 µg/mL | 16 µg/mL | 0.89 µg/mL (≈ 0.919 µM) | 0.22 µg/mL | 0 pg/mL | 96 pg/mL | 176 pg/mL |  |  | 5.3 EU/mg of product | 0.42 ng of LPS equivalent per mg of product |
| CCCCCCCCCCCC(=O)O[C@H](CCCCCCCCCCC)CC(=O)N[C@H](CC(=O)N[C@@H](CCCCN)C(=O)O)C(=O)NCCC[C@H](COC(=O)CCCCCN)NC(=O)C[C@H](O)CCCCCCCCCCC [OM-197-Lys-AC] | > 2.02 O.D | 0.80 O.D | > 50 µg/mL | > 14.6 µg/mL | 0.90 µg/mL | > 50 µg/mL | > 11.06 µg/mL | 1.46 µg/mL | 232 pg/mL | 184 pg/mL | 256 pg/mL |  |  | <2.5 EU/mg of product | <0.2 ng of LPS equivalent per mg of product |
| CCCCCCCCCCCC(=O)O[C@H](CCCCCCCCCCC)CC(=O)NC(CCOP(=O)(O)O)C(=O)NCCCC(COC(=O)CCCCCO)NC(=O)C[C@H](O)CCCCCCCCCCC (stereo partly drawn) [OM-197-FV8, 3-[(R)-3-dodecanoyloxytetradecanoylamino]-4-oxo-5-aza-9-[(R)-3-hydroxytetradecanoylamino]-decan-1,10-diol 1-dihydrogenphosphate 10-(6-hydroxyhexanoate)] | 1.07 O.D | 0.80 O.D | 25 µg/mL | 1.8 µg/mL (≈ 1.72 µM) | 1.24 µg/mL | 51 µg/mL | 7.89 µg/mL (≈ 7.53 µM) | 1.45 µg/mL | 12 pg/mL | 100 pg/mL | 252 pg/mL |  |  | 1820 EU/mg of product | 145.6 ng of LPS equivalent per mg of product |
| CCCCCCCCCCCC(=O)O[C@H](CCCCCCCCCCC)CC(=O)N[C@H](CC(=O)NCCCN)C(=O)NCCC[C@H](CO)NC(=O)C[C@H](O)CCCCCCCCCCC [OM-197-AP, N—[(R)-3-dodecanoyloxytetradecanoyl]-D-aspartic acid, α-N-{(4R)-5-hydroxy-4-[(R)-3-hydroxy-tetradecanoylamino]pentyl}-amide β-N-(3-aminopropyl)amide] | 1.49 O.D | 0.80 O.D | 25 µg/mL | 2.2 µg/mL (≈ 2.38 µM) | 0.41 µg/mL | > 100 µg/mL | > 13.69 µg/mL | 1.87 µg/mL | 428 pg/mL | 116 pg/mL | 84 pg/mL |  |  | <0.5 EU/mg of product | <0.04 ng of LPS equivalent per mg of product |
| CCCCCCCCCCCC(=O)O[C@H](CCCCCCCCCCC)CC(=O)N[C@H](CC(=O)O)C(=O)NCCC[C@H](COC(=O)CCCCCNC(=O)CCC(=O)O)NC(=O)C[C@H](O)CCCCCCCCCCC [OM-197-MC-AC-Succ, N—[(R)-3-dodecanoyloxytetradecanoyl]-D-aspartic acid, α-N-{(4R)-5-(6-succinylamidohexanoxyloxy)-4[(R)-3-hydroxy-tetradecanoylamino]pentyl}amide] | > 1.65 O.D | 0.80 O.D | > 100 µg/mL | 33.7 µg/mL (≈ 31.2 µM) | 2.04 µg/mL | > 16 µg/mL | 0.72 µg/mL (≈ 0.666 µM) | 0.28 µg/mL | 0 pg/mL | 32 pg/mL | 40 pg/mL |  |  | <0.05 EU/mg of product | <0.004 ng of LPS equivalent per mg of product |

— patent US8173133B2, “Acyl pseudodipeptides which carry a functionalized auxiliary arm” (OM Pharma, priority 1999, dated 2012)
